Data as given in ChEMBL document CHEMBL3507680, “University of Dundee, Gates Library screen for HepG2 cell viability”.

Assay: Human HepG2 cell viability assay in 384 well format
Format: toxicity, cell-based
Design: dose 125 nL, time 70.5 hour; cytotoxicity at 70.5 h: concentration not given beside the values
Conditions: HepG2 cells, read-out: Inhibition

SMILES	cytotoxicity at 70.5 h
Cc1cc(C)c(CNC(=O)C(C)Oc2ccccc2C#N)c(=O)[nH]1 (configuration not stated)	-13.5%
Cc1ncsc1C(=O)N1CCc2[nH]nc(-c3ccc4c(c3)OCO4)c2C1	13.6%
O=C(COCC(=O)N(c1ccccc1)c1ccccc1)N1CCOCC1	-5.79%
CC1CCN(CCNC(=O)Nc2ccc(F)cc2Cl)CC1	9.06%
Cc1cn2c(n1)C(CNCc1cnn3ccccc13)CCC2 (configuration not stated)	-5.6%
Cc1n[nH]c(C2CN(C(=O)CCOCC(F)(F)F)CCO2)n1 (configuration not stated)	-10.1%
Nc1nc(CN2CCCC2Cn2cncn2)nc2ccccc12 (configuration not stated)	-2.37%
Cc1cc(O)nc(C2CN(CC3(O)CCOCC3)CCO2)n1 (configuration not stated)	8.89%
COCCN1CCCC2(CCN(Cc3nnc(C4CC4)o3)C2)C1=O (configuration not stated)	-6.43%
Cc1nccc(C2(C)CCCNC2)n1 (configuration not stated)	16.5%
COc1ccc(N(Cc2ccco2)C(=O)C2CCOC2)cc1F (configuration not stated)	-6.7%
CC(=O)N1CCN(C(=O)NC(C)C)CC2(CNC(=O)C2)C1 (configuration not stated)	-28.3%
O=C(c1cc(-n2cnnn2)ccc1Cl)N1CCN(c2ccccc2)CC1	-1.12%
COC(=O)[C@@H]1CN(C(=O)NC(C)C)CCN1S(=O)(=O)c1ccccc1	-2.94%
COCC(=O)N1CCC2(COCc3cnc(N4CCOCC4)nc32)C1 (configuration not stated)	6.48%
COCCn1cc2c(n1)C(CNS(C)(=O)=O)OCC2 (configuration not stated)	-2.51%
N[C@H]1CN(C(=O)c2ccc3[nH]c(=O)c(=O)[nH]c3c2)C[C@@H]1c1ccccc1	-16.1%
Cn1ccc(C(=O)NCc2ccccc2CN2CCCCC2)cc1=O	-7.11%
Cc1ccc(C(=O)N2C[C@@H]3C[C@@H](c4nnc(C5CC5)o4)O[C@@H]3C2)s1	-3.56%
Cc1ccc(C(=O)Nc2ccc(N3CCCC3)cn2)cc1F	19.7%
Cn1cc(C(=O)N2CC[C@@]3(O)CCN(C(=O)C4CCC4)C[C@H]3C2)cn1	3.54%
CC(C)c1cncnc1-c1cc(F)cc2c1OC(CN)C2 (configuration not stated)	-1.8%
CC(C)CC1SCC(=O)Nc2c1cnn2-c1ccccc1F (configuration not stated)	-22.8%

SMILES	cytotoxicity at 70.5 h
Cc1ccc(CNC(=O)CCC(=O)NCCC(C)C)o1	18.9%
O=C1CC(N(C(=O)c2ccc(F)c(C(F)(F)F)c2)C2CC2)C(=O)N1 (configuration not stated)	0.0677%
CC(O)CN1CCN(C(=O)c2ccc(N3CCCC3)nn2)CC1 (configuration not stated)	1.72%
COc1ccc(C[C@H]2CN(C(=O)CS(C)(=O)=O)CC[C@H]2OC)cc1	-4.64%
CN(C)c1cnn(Cc2nc3ccccc3n2C)c(=O)c1	-12.8%
CSCCC(=O)N1CCCC(c2nccn2Cc2ccncc2)C1 (configuration not stated)	-5.49%
CN(CC(=O)N1CCCC1)Cc1nc2c(cnn2C)c(=O)[nH]1	-10.6%
Cc1ccc(-c2snnc2C(=O)NCCCO)cc1	-11.1%
CN(C)c1ncccc1CNS(=O)(=O)c1cc(F)ccc1F	-11.5%
O=C(Nc1ccc2ncccc2c1)C1CC(=O)N(Cc2ccccn2)C1 (configuration not stated)	-4.54%
CS(=O)(=O)CCN1CCSCC1c1ccc(Cl)cc1 (configuration not stated)	-1.17%
CN(CC(N)=O)CC1(c2ccc(Br)cc2)CC1	-5.53%
Cc1cc(N)n(-c2ccc3nnc(C)n3n2)n1	6.51%
Cc1ccsc1-c1cccc(-c2ccn(CC3CCNC3)n2)c1 (configuration not stated)	21.5%
CN(C(=O)NCCN1CCOCC1)C1CCN(c2ccccc2)C1=O (configuration not stated)	-14.1%
O=C(CCNS(=O)(=O)c1cccnc1)N1CCCCC1	15.8%
COc1ccc(N(CCC(N)=O)C(=O)CSc2ccc(Cl)cc2)cc1	-0.942%
Cc1n[nH]c(C)c1C1COCCN1C(=O)c1cccc(F)c1F (configuration not stated)	-15.7%
CC(C)c1nnc2n1CCN(C(=O)c1ccc(OCC3CC3)cc1)C2	-6.55%
Cc1cncc(C2CCCN(CC3CCC3)C2)n1 (configuration not stated)	-4.65%
NC(=O)C1CCN(C(=O)c2ccn(-c3ccc(F)cc3)n2)C1 (configuration not stated)	-1.48%
CNS(=O)(=O)CC(=O)N1CCCc2cc(C(C)C)ccc21	-98.6%
OC1CCCOC12CCN(CCCOc1ccccc1F)CC2 (configuration not stated)	-10.9%

SMILES	cytotoxicity at 70.5 h
Cc1ccc(N2CC[C@H]3CN(C(=O)c4ccn(C)n4)C[C@H]3C2)nn1	-7.56%
COCC1c2c(cnn2C)CCN1Cc1ccsc1 (configuration not stated)	-22.9%
O=C1CC(c2ccncc2)C2(CCN(CCc3ccccc3)CC2)N1 (configuration not stated)	-6.87%
Cc1nc(C2CCN(S(=O)(=O)c3ccc4c(c3)CCC4)CC2)n[nH]1	-2.6%
CC(C)C(Sc1nnnn1-c1ccccc1)C(=O)NCc1cccnc1 (configuration not stated)	-2.05%
Cc1ccccc1CN(C)C(=O)CCc1nc(-c2nnc[nH]2)no1	8.55%
COc1cccc(Nc2nc(-c3ccncc3)nc3c2CNCC3)c1	24.2%
CC1CCN(C(=O)c2ccn(COc3ccc(F)cc3)n2)CC1	-6.36%
Cc1ccc(CN2CCC3(CC2)OC(C(=O)N(C)C)c2ccccc23)o1 (configuration not stated)	-13.3%
CC(C)CS(=O)(=O)CC(=O)NC(C)(C)c1cccc(F)c1	6.38%
CC(NC(=O)CSCC(N)=O)c1ccc(Oc2ccccc2)cc1 (configuration not stated)	-8.85%
O=C(c1ccnc(N2CCOC(c3ccc(Cl)cc3)C2)c1)N1CCCC1 (configuration not stated)	-15.4%
Cc1ccc(-c2noc([C@H](N)CC(C)C)n2)nn1	7.92%
O=C(Nc1ccc(F)cc1)N1C[C@H]2C[C@H](C(=O)N3CCCC3)[C@@H](C1)O2	-9.47%
Cc1nc(C)n(CC(=O)N2CCCC(c3cc4ccccc4cn3)C2)n1 (configuration not stated)	-5.39%
Cc1c(Br)cccc1CSc1nnc(CO)n1C	14%
CN(C)C(=O)C1CCC2(CCN(Cc3ccc4ccccc4n3)CC2)O1 (configuration not stated)	-8.67%
CCOc1ccc(CC(=O)N2CCCC2c2cc(C)on2)cc1 (configuration not stated)	-3.15%
Cc1cc(=O)[nH]c(SC(C)C(=O)N2CCC(c3ncc[nH]3)CC2)n1 (configuration not stated)	0.989%
CCNC(=O)[C@@H]1C[C@@H](NC(=O)c2cccnc2O)CN1Cc1ccsc1	-11.2%
Cc1csc(N2CCN(CC(=O)Nc3cccnc3)CC2C)n1 (configuration not stated)	2.59%
O=C(NC[C@H]1CCCC[C@H]1O)c1cccc2[nH]c(-c3cccs3)nc12	-5.24%
CCOC(=O)CN1CCC2(CC1)CC(NC(=O)c1ccccn1)CO2 (configuration not stated)	-1.03%

SMILES	cytotoxicity at 70.5 h
CC(C)NC(=O)[C@@H]1C[C@@H](N)CN1C(=O)c1cc2c([nH]c1=O)CCCC2	-6.99%
O=C(c1cc2ccccc2c(=O)[nH]1)N1CCN(CCO)CC1	-4.06%
Nc1nccnc1C1CN(C(=O)c2ccnnc2)CCO1 (configuration not stated)	-6.55%
CN(Cc1ccncc1)C(=O)c1ccc2c(c1O)OC(C)(C)C2	-5.32%
O=C(c1ccc(F)c(F)c1)N1CCC[C@]2(C[C@@H](OCC3CC3)CO2)C1	-12.6%
Cn1nccc1C1CCN(Cc2csc(-c3ncccn3)n2)CC1	-5.7%
COCCn1cc2c(n1)C(CNCc1ccco1)OCC2 (configuration not stated)	22.8%
Cc1cccc(NC(=O)N2CCN(Cc3nnc(C(C)C)o3)CC2)c1	-7.45%
CCN1CCC(N[C@@H]2CC[C@@H]2NC(=O)Cc2csc(C)n2)CC1	-1.08%
CCOC(=O)CC1CCCCN1C(=O)c1cc(C)oc1C (configuration not stated)	3.76%
CCc1nnc2n1CCN(Cc1cc(Cl)c3c(c1)OCCO3)C2	21.4%
CCOCC1COCCC12CCN(C(=O)C1=CCCC1)CC2 (configuration not stated)	-5.05%
CCC(CNC(=O)c1ccc(Br)o1)N1CCc2ccccc2C1 (configuration not stated)	-7.37%
CCn1cc(NC(=O)Nc2ccc3c(c2)OCCO3)cn1	-5.76%
COCC(=O)Nc1ccccc1-c1ccc(=O)n(C)n1	-4.15%
Cc1ncsc1CN1C[C@H](C(=O)NC2CCCC2)[C@@H]2CCO[C@@H]2C1	-1.79%
c1cc(CN2C[C@@H]3OCCN(CCN4CCCC4)[C@@H]3C2)co1	-10.1%
c1cc(CN2CCCC3(CCN(CC4CCCO4)CC3)C2)n[nH]1 (configuration not stated)	-6.85%
CC1(C)CC(=O)c2cnc3nc(N4CCCCC4)nc(O)c3c2C1	-11%
CCc1nc(C2CCCN2CC(=O)N2CCc3ccccc32)no1 (configuration not stated)	-5.32%
O=C(c1ccncn1)N1CCC[C@]2(C[C@@H](OCC3CC3)CO2)C1	-13.8%
Cc1cc(NC(=O)Cn2ncc(Br)c2C)no1	-2.58%
Cc1c(C(=O)NC2CCCOC2)nnn1-c1ccccc1 (configuration not stated)	17.4%

SMILES	cytotoxicity at 70.5 h
COc1ccc(CC(=O)Nc2c(C)nc(N3CCCC3)nc2C)cc1	-2.54%
Cc1nnc2n1CCN(C(C)c1nnc(-c3cccs3)o1)C2 (configuration not stated)	-8.71%
CC(=O)N1[C@H](CN(C)C)C[C@@H]2CN(c3ncc(F)cn3)CC[C@@H]21	-6.27%
O=S(=O)(C1CC1)N1CCc2ncc(Cn3cccn3)n2CC1	-1.43%
CCOCC(O)CN1CCN(C(=O)c2ccccc2F)CC1 (configuration not stated)	-1.86%
CCSc1cc(C(=O)N(C(C)C)C2CC2)ccn1	-3.36%
Cc1nc2c(c(=O)[nH]1)CCN(C(=O)c1cccc3nccnc13)C2	0.0996%
CN(CC(O)C1CC1)C(=O)Nc1ccc(F)c(-n2cccc2)c1 (configuration not stated)	-2.43%
COc1ccc(CN2CCCn3cnc(COC(C)C)c3C2)cc1	23.2%
CCOCC1CN(Cc2csc(C)n2)Cc2nccn2C1 (configuration not stated)	3.86%
Cc1nccc(N2C[C@@H](CN3CCCC3)[C@@H](CO)C2)n1	-6.17%
O=C1CN(S(=O)(=O)c2ccc(F)cc2)CC(O)CN1CC1CC1 (configuration not stated)	-9.49%
Cc1noc(C)c1-c1nc(C2CCCN(C(=O)CCN)C2)ccc1CO (configuration not stated)	-1.78%
CCc1nc(CN2CCN(C(=O)N3CCCCC3)CC2)cs1	21.4%
CS(=O)(=O)N1CCN2C(=O)N(C3CCCCC3)C[C@H]2C1	7.82%
COCC1CCCN(C(=O)c2ccccc2NCc2cccnc2)C1 (configuration not stated)	3.32%
COc1cc(CNCC2CN(C3CC3)CCO2)cc(OC)c1 (configuration not stated)	-2.94%
OCCN1CCOC2(CCCN(c3cccc(F)c3)C2)C1 (configuration not stated)	-7.62%
CS(=O)(=O)N1CCCC(Cc2ccnc(Nc3ccccn3)c2)C1 (configuration not stated)	-6.97%
CCc1sc(-c2nnc(CNC(C)Cn3cc(C)cn3)o2)cc1C (configuration not stated)	5.1%
